Results reported in article PMC2011259, “Pentamethylmelamine (PMM): Phase I clinical and pharmacokinetic studies” (British Journal of Cancer, 1983).
Read-outs that look alike come from different tables or passages of the source.

Experiments:
[1] = test system: patients with malignant tumours; experiment: Phase I clinical evaluation of toxicity of PMM given as intravenous infusion; format: in vivo, man; parameters: key to Nausea/vomiting Intensity: Mild: Vomiting once or twice during the infusion and requiring no anti- emetics was classified as mild; Moderate: vomiting that persisted up to 6 h after infusion and requiring a maximum administration of two courses of anti- emetics was regarded as moderate; Severe: Vomiting was classified as severe if it continued up to 24 h after PMM infusion and/or could only be controlled partially by repeated doses of anti-emetics; details: for Nausea/vomiting Frequency: per courses
Excerpt: (§1) Br. J. Cancer (1983), 47, 027-033 Pentamethylmelamine (PMM): Phase I clinical and pharmacokinetic studies J.R.F. Muindi*, D.R. Newellt, I.E. Smith* & K.R. Harrapt *Division of Medicine, Institute of Cancer Research and Royal Marsden Hospital, and the tDepartment of Biochemical Pharmacology, Institute of Cancer Research, Sutton, Surrey. […] PMM has been administered as an intravenous infusion to 17 patients in a Phase I clinical trial. […] In the present study the results of the Phase I clinical evaluation of PMM at the Royal Marsden Hospital are reported. In addition to the clinical assessment of patients, pharmacokinetic studies were also performed. […] (Broggini et al., 1981; Morimoto et al., 1980; Ames et al., 1979; Casper et al., 1981; Idhe et al., 1981; Benvenuto et al., 1981; Rutty et al., 1982). […] The mechanism of action of N-methylolmelamines is, however, still uncertain. To ascertain the rate and extent of PMM metabolism in man, plasma levels of the parent drug and the first two products of oxidative N- demethylation i.e. N2,N2,N4,N6-tetramethyl- melamine (TMM) and N2,N4,N6-trimethylmelamine (TRIMM) were measured (Figure 2). […] Materials and methods Patient selection The patients entered in the PMM Phase I clinical study were all under the care of the Royal Marsden Hospital. […] Additional criteria required for eligibility to enter into the study included: WBC and platelet count > 3000 uM I-' and > 100,000 pM 11 respectively; blood urea and serum creatinine < 8 mM ,M I1- and < 106 pM 1 respectively. None of the patients had received cancer chemotherapy or radiotherapy during the 3-week period preceding their entry into the study. […] The treatment protocol was approved by the Ethical Committee of the Royal Marsden Hospital and informed consent was obtained from all patients prior to entry into the study. […] It was supplied by Prof. W.C.J. Ross of the Chester Beatty Research Institute, London, as a white crystalline powder. PMM (2mg ml-') was infused intravenously as a 2% ethanol 5% dextrose solution after micropore (0.22 pm) filtration. All formulated PMM infusions were used within 24h of preparation, as a sterility precaution. PMM was initially given at a dose of […] and the dose escalated to 1300mgm-2 according to a modified Fibonacci scheme (Table II). At higher PMM doses, requiring large infusion volumes, the infusion time was extended from 1 to 4 h. No dose escalation was TRIMM CH3 Nc"N H 11 H Ii N N H CH3 HCHO 1. carried out in the same patient.

[2] = Pharmacokinetic studies: plasma levels of PMM, TMM and TRIMM by gas liquid chromatography; format: in vivo, man; details: for half-life: intravenous
Excerpt: as §1

malignant tumours = experiment: Tumour response in the Phase I trial; format: in vivo, man
Excerpt: Br. J. Cancer (1983), 47, 027-033 Pentamethylmelamine (PMM): Phase I clinical and pharmacokinetic studies J.R.F. Muindi*, D.R. Newellt, I.E. Smith* & K.R. Harrapt *Division of Medicine, Institute of Cancer Research and Royal Marsden Hospital, and the tDepartment of Biochemical Pharmacology, Institute of Cancer Research, Sutton, Surrey. […] PMM has been administered as an intravenous infusion to 17 patients in a Phase I clinical trial. […] In the present study the results of the Phase I clinical evaluation of PMM at the Royal Marsden Hospital are reported. In addition to the clinical assessment of patients, pharmacokinetic studies were also performed. […] (Broggini et al., 1981; Morimoto et al., 1980; Ames et al., 1979; Casper et al., 1981; Idhe et al., 1981; Benvenuto et al., 1981; Rutty et al., 1982). […] The mechanism of action of N-methylolmelamines is, however, still uncertain. To ascertain the rate and extent of PMM metabolism in man, plasma levels of the parent drug and the first two products of oxidative N- demethylation i.e. N2,N2,N4,N6-tetramethyl- melamine (TMM) and N2,N4,N6-trimethylmelamine (TRIMM) were measured (Figure 2). […] Materials and methods Patient selection The patients entered in the PMM Phase I clinical study were all under the care of the Royal Marsden Hospital. […]

[3] = parameters: method as in Cumber & Ross, 1977; details: compared with N2,N4,N6-trimethyl-N2,N4,N6-trimethylolmelamine; ref Cumber & Ross, 1977; cited from earlier work
[4] = test system: experimental tumour test systems; parameters: method as in earlier work; details: a number of experimental tumour test systems, ref Cumber & Ross, 1977, Connors et al., Goldin et al., 1981; cited from earlier work
[5] = parameters: method as in Rutty et al., 1982; details: patients of this trial, not detectable; ref Rutty et al., 1982; cited from earlier work
[6] = parameters: method as in Rutty et al., 1982; details: rats; ref Rutty et al., 1982; cited from earlier work
[7] = parameters: method as in Rutty et al., 1982; details: mice; ref Rutty et al., 1982; cited from earlier work
[8] = parameters: method as in Ames et al. (1979); details: rabbits, independent of the route (i.v. and oral); ref Ames et al. (1979); cited from earlier work
patients = details: cited from earlier work

CNc1nc(N(C)C)nc(N(C)C)n1 [PMM, Pentamethylmelamine]
Nausea/vomiting Intensity ([1]; 100 mg m-2 i.v. infusion): Mild | Nausea/vomiting Frequency ([1]; 100 mg m-2 i.v. infusion, 3 patients): 0/7 | Nausea/vomiting Frequency ([1]; 200 mg m-2 i.v. infusion, 3 patients): 1/7 | Nausea/vomiting Intensity ([1]; 300 mg m-2 i.v. infusion): Moderate (vomiting that persisted up to 6 h after infusion and requiring a maximum administration of two courses of anti- emetics was regarded as moderate) | Nausea/vomiting Frequency ([1]; 300 mg m-2 i.v. infusion, 3 patients): 2/5 | Patients with nausea and vomiting ([1]; 500 mg m-2 and above): all patients | Nausea/vomiting Frequency ([1]; 500 mg m-2 i.v. infusion, 3 patients): 8/8 | Nausea/vomiting Intensity ([1]; 800 mg m-2 i.v. infusion): Severe (Vomiting was classified as severe if it continued up to 24 h after PMM infusion and/or could only be controlled partially by repeated doses of anti-emetics) | Nausea/vomiting Frequency ([1]; 800 mg m-2 i.v. infusion, 3 patients): 7/7 | Duration of nausea and vomiting ([1]; 1300 mg m-2 i.v. infusion): > 24 h | Nausea/vomiting Frequency ([1]; 1300 mg m-2 i.v. infusion, 2 patients): 4/4 | Severity of nausea and vomiting ([1]; 1300 mg m-2 i.v. infusion, poorly controlled by anti-emetics): severe | Haematological toxicity ([1]; 100-1300 mg m-2 i.v. infusion): not observed | Hepatic toxicity ([1]; 100-1300 mg m-2 i.v. infusion): not observed | Renal toxicity ([1]; 100-1300 mg m-2 i.v. infusion): not observed | Acute neurological side effects ([1]; doses below 500 mg m-2, not assessable at higher doses because of anti-emetics): no neurological side effects were observed | Dose-limiting toxicities ([1]; i.v. infusion 100-1300 mg m-2, 3 weekly): nausea and vomiting | Pruritic erythematous maculopapular skin rashes ([1]; one patient at 200 mg m-2 (2nd course), one at 1300 mg m-2, other medications possibly responsible): Two patients | Correlation (r) of plasma levels at the end of the infusion with dose ([2]; 1 h infusion, 100-300 mg m-2, P = 0.005): 0.94 | half-life ([2]; human, plasma, 100 mg m-2, patient six, 100 mg m-2, hepatic function normal, value + s.e., read-out: PMM plasma t1/2 (overall elimination phase)): 0.902 h | half-life ([2]; human, plasma, 200 mg m-2, patient five, 200 mg m-2, hepatic function abnormal, value + s.e., read-out: PMM plasma t1/2 (overall elimination phase)): 2.25 h | half-life ([2]; human, plasma, 300 mg m-2, patient eight, 300 mg m-2, hepatic function abnormal, value + s.e., read-out: PMM plasma t1/2 (overall elimination phase)): 2.54 h | half-life ([2]; human, plasma, 300 mg m-2, patient one, 300 mg m-2, hepatic function normal, value + s.e., read-out: PMM plasma t1/2 (overall elimination phase)): 1.21 h | half-life ([2]; human, plasma, 500 mg m-2, patient seven, 500 mg m-2, hepatic function normal, value + s.e., read-out: PMM plasma t1/2 (overall elimination phase)): 1.14 h | half-life ([2]; human, plasma, 500 mg m-2, patient three, 500 mg m-2, hepatic function abnormal, value + s.e., read-out: PMM plasma t1/2 (overall elimination phase)): 2.12 h | half-life ([2]; human, plasma, patients with hepatic disease and abnormal liver function tests, mean + SEM, n = 3, P = 0.002 vs normal, read-out: PMM t1/2, group mean): 2.3 h | half-life ([2]; human, plasma, patients with normal liver function, mean + SEM, n = 3, read-out: PMM t1/2, group mean): 1.08 h | AUC(0-t) ([2]; human, plasma, iv, i.v. PMM 100-300 mg m-2, n = 6, mean + SEM, read-out: PMM AUC 0-12h (converted)): 72.3 µM·h | Area under the plasma conc. v. time curve ([2]; patient eight, PMM dose 300 mg m-2 i.v., hepatic function abnormal): 6019 IM x min | Area under the plasma conc. v. time curve ([2]; patient five, PMM dose 200 mg m-2 i.v., hepatic function abnormal): 7175 IM x min | PMM pharmacokinetics in the disposition phase (order) ([2]; patient four, 200 mg m-2, hepatic function normal): not first-order | Area under the plasma conc. v. time curve ([2]; patient four, PMM dose 200 mg m-2 i.v., hepatic function normal): 1694 IM x min | Area under the plasma conc. v. time curve ([2]; patient one, PMM dose 300 mg m-2 i.v., hepatic function normal): 6232 IM x min | Area under the plasma conc. v. time curve ([2]; patient seven, PMM dose 500 mg m-2 i.v., hepatic function normal): 3940 IM x min | Area under the plasma conc. v. time curve ([2]; patient six, PMM dose 100 mg m-2 i.v., hepatic function normal): 734 IM x min | Area under the plasma conc. v. time curve ([2]; patient three, PMM dose 500 mg m-2 i.v., hepatic function abnormal): 7179 IM x min | PMM pharmacokinetics in the disposition phase (order) ([2]; patient two, 100 mg m-2, hepatic function normal): not first-order | Area under the plasma conc. v. time curve ([2]; patient two, PMM dose 100 mg m-2 i.v., hepatic function normal): 317 IM x min | Minor response (malignant tumours; 500 mg m-2, patient with squamous cell carcinoma of bronchus): One minor response | Complete or partial responses (malignant tumours; 17 patients, 100-1300 mg m-2): No complete or partial responses | Chemical stability [3]: greater chemical stability | Activity relative to HMM [4]: equivalent activity | PMM metabolites capable of releasing formaldehyde in plasma [5]: < 50 µM | PMM metabolites capable of releasing formaldehyde in plasma [6]: 211 yM | PMM metabolites capable of releasing formaldehyde in plasma [7]: 563 to 773 µM | Urinary excretion of drug-derived material [8]: 75-85 % dose admin. | Haematological toxicity (patients; 1.2 g/m2/day x 10, ref Goldberg et al. (1980)): reproducibly induced haematological toxicity | Partial response among all patients who have received PMM (patients; of 173 patients, ref Casper et al., 1981): 1 | Minor responses among all patients who have received PMM (patients; of 173 patients, ref Van Echo et al., 1980, Ajani et al., 1982 and the present study): 7
